Converted amounts (≈) assume the structure as drawn.
Tests used:
[1] = tested on: A. fumigatus; assay: A. fumigatus MIC at 100% growth inhibition (CLSI M38-A2); assay type: cell-based, Aspergillus fumigatus; settings: 100% growth inhibition, range tested 8-0.0078 μg/mL, values given as ranges; for MIC: Aspergillus fumigatus, read-out: Aspergillus fumigatus MIC
Experimental: A. fumigatus MICs were determined at 100% growth inhibition following CLSI guidelines at a concentration range of 8-0.0078 μg/mL (CLSI M38-A2).

[2] = tested on: C. albicans (ATCC 90028); assay: Minimum inhibitory concentration, in vitro broth microdilution assay (CLSI M27-A2); assay type: cell-based, Candida albicans; settings: ATCC 90028, about 50% growth reduction, 2 days at 36° C., range tested 8-0.0078 μg/mL, values given as ranges; for MIC: Candida albicans, ATCC90028, 48 h, read-out: Candida albicans MIC
Experimental: The antifungal potency of the test compounds was measured using the in vitro broth microdilution assay under assay conditions described by the Clinical and Laboratory Standards Institute (CLSI M27-A2). The test compounds were dissolved in 100% DMSO, suspended completely by sonication or vortexing, diluted by 2-fold serial titrations in the same vehicle, for a total of 11 test concentrations. A 4 μL aliquot of each dilution was added to 196 μL of RPMI-1640+MOPS medium seeded with the C. albicans (ATCC 90028) suspension in wells of a 96 well plate (fungal cell count: 1×10^3 to 1×10^4 colony forming units per mL). The final volume was 200 μL in each well and the final DMSO concentration was 2 percent. The inoculated plates were incubated for 2 days at 36° C. Following incubation, the test plates were visually examined and wells were scored for growth to define the minimum inhibitory concentration. […] Each test substance was evaluated in duplicate. Vehicle-control and an active reference agent (e.g., posaconazole) were used as blank and positive controls, respectively.

| Structure (SMILES) | Aspergillus fumigatus MIC [1] | Candida albicans MIC [2] | MIC [1] | MIC [2] |
| --- | --- | --- | --- | --- |
| OC(c1ccc(N2CCN(c3ccc(-c4ccc(C(F)(F)[C@](O)(Cn5cnnn5)c5ccc(F)cc5F)nc4)cc3)CC2)cn1)C(F)(F)F (single isomer, unassigned) [Example 6-Fr-II] | 0.25 to 1.0 µg/mL | ≤0.0078 to 0.010 µg/mL | – | – |
| OC(c1cn(-c2ccc(N3CCN(c4ccc(-c5ccc(C(F)(F)C(O)(Cn6cnnn6)c6ccccc6F)nc5)cc4)CC3)cc2)nn1)C(F)(F)F (single isomer, unassigned; (+)) [108(+), (+)-1,1-difluoro-2-(2-fluorophenyl)-3-(1H-tetrazol-1-yl)-1-(5-(4-(4-(4-(4-(2,2,2-trifluoro-1-hydroxyethyl)-1H-1,2,3-triazol-1-yl)phenyl)piperazin-1-yl)phenyl)pyridin-2-yl) propan-2-ol] | 0.25 to 1.0 µg/mL | ≤0.0078 to 0.010 µg/mL | – | – |
| OC(c1cn(-c2ccc(N3CCN(c4ccc(-c5ccc(C(F)(F)C(O)(Cn6cnnn6)c6ccccc6F)nc5)cc4)CC3)cn2)nn1)C(F)(F)F (single isomer, unassigned; (+)) [110(+), (+)-1,1-difluoro-2-(2-fluorophenyl)-3-(1H-tetrazol-1-yl)-1-(5-(4-(4-(6-(4-(2,2,2-trifluoro-1-hydroxyethyl)-1H-1,2,3-triazol-1-yl)pyridin-3-yl)piperazin-1-yl)phenyl)pyridin-2-yl) propan-2-ol] | 0.25 to 1.0 µg/mL | ≤0.0078 to 0.010 µg/mL | – | – |
| OC(CC(F)(F)F)c1ccc(N2CCN(c3ccc(-c4ccc(C(F)(F)[C@](O)(Cn5cncn5)c5ccc(F)cc5F)nc4)cc3)CC2)cn1 (single isomer, unassigned; (+)) [120(+)] | 0.062 to 0.25 µg/mL | ≤0.0078 to 0.010 µg/mL | – | – |
| CC[C@@H]([C@H](C)O)n1ncn(-c2ccc(N3CCN(c4ccc(-c5ccc(C(F)(F)C(O)(Cn6cncn6)c6ccc(F)cc6F)nc5)cc4)CC3)cc2)c1=O (single isomer, unassigned; (+)) [123(+)] | 0.062 to 0.25 µg/mL | 0.010 to 0.10 µg/mL | – | – |
| OC(c1cn(-c2ccc(N3CCN(c4ccc(-c5ccc(C(F)(F)C(O)(Cn6cnnn6)c6ccccc6F)nc5)cc4)CC3)cc2)nn1)C(F)(F)F (single isomer, unassigned; (-)) [108(−)] | >8 µg/mL | >8 µg/mL | – | – |
| OC(c1cn(-c2ccc(N3CCN(c4ccc(-c5ccc(C(F)(F)C(O)(Cn6cnnn6)c6ccccc6F)nc5)cc4)CC3)cn2)nn1)C(F)(F)F (single isomer, unassigned; (-)) [110(−), (−)-1,1-difluoro-2-(2-fluorophenyl)-3-(1H-tetrazol-1-yl)-1-(5-(4-(4-(6-(4-(2,2,2-trifluoro-1-hydroxyethyl)-1H-1,2,3-triazol-1-yl)pyridin-3-1)piperazin-1-yl)phenyl)pyridin-2-yl) propan-2-ol] | >8 µg/mL | >8 µg/mL | – | – |
| OC(CC(F)(F)F)c1ccc(N2CCN(c3ccc(-c4ccc(C(F)(F)[C@](O)(Cn5cncn5)c5ccc(F)cc5F)nc4)cc3)CC2)cn1 (single isomer, unassigned; (-)) [120(−)] | 0.25 to 1.0 µg/mL | – | – | 0.01 to 0.1 µg/mL (≈ 0.0143 to 0.143 µM) |
| CC[C@@H]([C@H](C)O)n1ncn(-c2ccc(N3CCN(c4ccc(-c5ccc(C(F)(F)C(O)(Cn6cncn6)c6ccc(F)cc6F)nc5)cc4)CC3)cc2)c1=O (single isomer, unassigned; (-)) [123(−)] | 0.25 to 1.0 µg/mL | – | – | 0.01 to 0.1 µg/mL (≈ 0.0132 to 0.132 µM) |
| OC(c1ccc(N2CCN(c3ccc(-c4ccc(C(F)(F)C(O)(Cn5cnnn5)c5cc(F)ccc5F)nc4)cc3)CC2)cc1)C(F)(F)F (stereo not drawn) [15(+)] | 0.25 to 1.0 µg/mL | ≤0.0078 to 0.010 µg/mL | – | – |
| OC(c1ccc(N2CCN(c3ccc(-c4ccc(C(F)(F)C(O)(Cn5cnnn5)c5cc(F)ccc5F)nc4)cc3)CC2)cc1)C(F)(F)F (stereo not drawn) [15(−), 2-(2,5-difluorophenyl)-1,1-difluoro-3-(1H-tetrazol-1-yl)-1-(5-(4-(4-(4-(2,2,2-trifluoro-1-hydroxyethyl)phenyl)piperazin-1-yl)phenyl)pyridin-2-yl) propan-2-ol] | >8 µg/mL | 0.10 to 1.0 µg/mL | – | – |
| CC[C@@H]([C@H](C)O)n1ncn(-c2ccc(N3CCN(c4ccc(-c5ccc(C(F)(F)[C@](O)(Cn6cnnn6)c6ccccc6F)nc5)cc4)CC3)cn2)c1=O [102(+), 4-(5-(4-(4-(6-((R)-1,1-difluoro-2-(2-fluorophenyl)-2-hydroxy-3-(1H-tetrazol-1-yl)propyl)pyridin-3-yl)phenyl)piperazin-1-yl)pyridin-2-yl)-2-((2S,3S)-2-hydroxypentan-3-yl)-2,4-dihydro-3H-1,2,4-triazol-3-one] | 0.25 to 1.0 µg/mL | ≤0.0078 to 0.010 µg/mL | – | – |
| CC[C@@H]([C@H](C)O)n1ncn(-c2ccc(N3CCN(c4ccc(-c5ccc(C(F)(F)[C@](O)(Cn6cnnn6)c6ccccc6F)nc5)cc4)CC3)cn2)c1=O [102(−), 4-(5-(4-(4-(6-((R)-1,1-difluoro-2-(2-fluorophenyl)-2-hydroxy-3-(1H-tetrazol-1-yl)propyl)pyridin-3-yl)phenyl)piperazin-1-yl)pyridin-2-yl)-2-((2S,3S)-2-hydroxypentan-3-yl)-2,4-dihydro-3H-1,2,4-triazol-3-one] | >8 µg/mL | 0.10 to 1.0 µg/mL | – | – |
| CC[C@@H]([C@H](C)O)n1ncn(-c2ccc(N3CCN(c4ccc(-c5ccc(C(F)(F)[C@](O)(Cn6cnnn6)c6ccc(F)cc6)nc5)cc4)CC3)cn2)c1=O [109(+), (+)-4-(5-(4-(4-(6-((R)-1,1-difluoro-2-(4-fluorophenyl)-2-hydroxy-3-(1H-tetrazol-1-yl)propyl)pyridin-3-yl)phenyl)piperazin-1-yl)pyridin-2-yl)-2-((2S,3S)-2-hydroxypentan-3-yl)-2,4-dihydro-3H-1,2,4-triazol-3-one] | 0.25 to 1.0 µg/mL | ≤0.0078 to 0.010 µg/mL | – | – |
| CC[C@@H]([C@H](C)O)n1ncn(-c2ccc(N3CCN(c4ccc(-c5ccc(C(F)(F)[C@](O)(Cn6cnnn6)c6ccc(F)cc6)nc5)cc4)CC3)cn2)c1=O [109(−), (−)-4-(5-(4-(4-(6-((R)-1,1-difluoro-2-(4-fluorophenyl)-2-hydroxy-3-(1H-tetrazol-1-yl)propyl)pyridin-3-yl)phenyl)piperazin-1-yl)pyridin-2-yl)-2-((2S,3S)-2-hydroxypentan-3-yl)-2,4-dihydro-3H-1,2,4-triazol-3-one] | 1.0 to 4.0 µg/mL | 0.10 to 1.0 µg/mL | – | – |
| N#Cc1ccc(N2CCN(c3ccc(-c4ccc(C(F)(F)[C@](O)(Cn5cnnn5)c5ccc(F)cc5F)nc4)cc3)CC2)cc1 [Example 1, (R)-4-(4-(4-(6-(2-(2,4-difluorophenyl)-1,1-difluoro-2-hydroxy-3-(1H-tetrazol-1-yl)propyl)pyridin-3-yl)phenyl)piperazin-1-yl) benzonitrile] | – | – | 0.25 to 1 µg/mL (≈ 0.407 to 1.63 µM) | 0.0078 to 0.01 µg/mL (≈ 0.0127 to 0.0163 µM) |

More lines, now with the values ahead:

| Aspergillus fumigatus MIC [1] | Candida albicans MIC [2] | MIC [1] | MIC [2] | Structure (SMILES) |
| --- | --- | --- | --- | --- |
| – | – | 0.25 to 1 µg/mL (≈ 0.363 to 1.45 µM) | 0.01 to 0.1 µg/mL (≈ 0.0145 to 0.145 µM) | OC(c1ccc(N2CCN(c3ccc(-c4ccc(C(F)(F)[C@](O)(Cn5cnnn5)c5ccc(F)cc5F)nc4)cc3)CC2)cn1)C(F)(F)F (single isomer, unassigned) [Example 6-Fr-I] |
| 0.062 to 0.25 µg/mL | ≤0.0078 to 0.010 µg/mL | – | – | OC(CC(F)(F)F)c1ccc(N2CCN(c3ccc(-c4ccc(C(F)(F)[C@](O)(Cn5cnnn5)c5ccc(F)cc5F)nc4)cc3)CC2)cn1 (single isomer, unassigned) [Example 13-Fr-I] |
| 0.25 to 1.0 µg/mL | ≤0.0078 to 0.010 µg/mL | – | – | OC(CC(F)(F)F)c1ccc(N2CCN(c3ccc(-c4ccc(C(F)(F)[C@](O)(Cn5cnnn5)c5ccc(F)cc5)nc4)cc3)CC2)cn1 (single isomer, unassigned; (+)) [121(+)] |
| 0.25 to 1.0 µg/mL | ≤0.0078 to 0.010 µg/mL | – | – | OC(CC(F)(F)F)c1ccc(N2CCN(c3ccc(-c4ccc(C(F)(F)[C@](O)(Cn5cnnn5)c5ccccc5F)nc4)cc3)CC2)cn1 (single isomer, unassigned; (+)) [122(+)] |
| – | – | > 8 µg/mL | 0.1 to 1 µg/mL (≈ 0.146 to 1.46 µM) | OC(CC(F)(F)F)c1ccc(N2CCN(c3ccc(-c4ccc(C(F)(F)[C@](O)(Cn5cnnn5)c5cccc(F)c5)nc4)cc3)CC2)cn1 (single isomer, unassigned; (-)) [119(−)] |
| >8 µg/mL | 0.10 to 1.0 µg/mL | – | – | OC(CC(F)(F)F)c1ccc(N2CCN(c3ccc(-c4ccc(C(F)(F)[C@](O)(Cn5cnnn5)c5ccc(F)cc5)nc4)cc3)CC2)cn1 (single isomer, unassigned; (-)) [121(−)] |
| >8 µg/mL | 1.0 to 8.0 µg/mL | – | – | OC(CC(F)(F)F)c1ccc(N2CCN(c3ccc(-c4ccc(C(F)(F)[C@](O)(Cn5cnnn5)c5ccccc5F)nc4)cc3)CC2)cn1 (single isomer, unassigned; (-)) [122(−)] |

— patent US10464922B2, “Metalloenzyme inhibitor compounds” (NQP 1598 LTD., priority 2015, dated 2019)
